# Positions of bridges follow the written chain, without caps; N, C: chain ends. Non-standard residues stand in square brackets, D forms with d. Residues, ends and D or L forms follow the SMILES beside them. Chains are numbered I, II in the order given. Gly(N-piperonyl) = O=C(O)CNCc1ccc2c(c1)OCO2; N(4-MeOBn)Gly = COc1ccc(CNCC(=O)O)cc1; Nrpe = C[C@@H](NCC(=O)O)c1ccccc1; Nlys = NCCCCNCC(=O)O; βAla = NCCC(=O)O
# Columns and labels:
# [1] = Propidium iodide test of cell lysis; type: cell-based; details: non-permeabilized cells
# [2] = test system: tumor vascular endothelium of subcutaneous HCC4017 tumors; assay: In vivo vascular disrupting effect; design: species or system mice; details: 20 μg i.v., 24 hours
# Protocol: The in vivo vascular disrupting effects of PPS1-D2 were explored. Mice bearing HCC4017 tumors growing subcutaneously were injected i.v. with 20 μg of PPS1-D2. Twenty four hours later, the tumors were removed, cryosectioned, and stained for CD31 to detect vascular endothelium. […] This dose can be calculated to give an initial blood concentration that is roughly 10-fold higher than needed for maximal lysis of PS-expressing cell in vitro.
# [3] = Toxicity of PPS1-D2 to mice; type: in vivo
# breast cancer = details: cited from earlier work
# H460 xenografts = assay: Inhibition of growth of H460 lung cancer xenograft; type: in vivo, mice
# Protocol: Whether PPS1D1 would inhibit tumor growth in a murine model was examined. H460 cells were implanted in nude mice. Tumors were allowed grow until it reach […]. These xenografts were then treated with a daily dose of […] in four different groups that consist of PPS1D1 alone, docetaxel alone, PPS1D1 and docetaxel together or with the control peptoid (PC462D1) alone. Docetaxel is a standard chemotherapeutic treatment for non-small cell carcinoma. The activity of PPSD1 and its ability to work as a combination treatment were examined. […] This effect was extremely potent and the tumor growth was completely controlled. […] It has been reported that chemotherapy and radiation therapy increase the PS flipping in tumor microenvironment. Therefore, Docetaxel might have helped improve binding of PPS1D1 on cancer cell surface that is now displaying an increased amount of PS to be targeted. After the standard chemotherapy and radiation therapy, the target PS is highly abundant for the drug to recognize and attack.
# The effect of PPS1D1 on the growth of H460 xenografts implanted in NOD/SCID immunodeficient mice was examined. Immunodeficient animals were chosen to facilitate the growth of human tumor xenografts. […] Therapy with a control peptoid (PC462D1, 0.25 mg/mouse, 3×/week ip), PPS1D1 (0.25 mg/mouse, 3×/week ip), docetaxel (0.5 mg/kg, 2×/week, ip) or the combination of PPS1D1+docetaxel was initiated when tumors were ˜100 mm3 in volume. […] Tumor tissue was harvested after 4 weeks of therapy and assessed for cell proliferation and apoptosis by immunohistochemistry. […] It is clear from studies with bavituximab that standard chemotherapy (e.g., taxanes) increases the exposure of PS resulting in elevated binding of the PS targeting agent. A similar mechanism can underlie the enhanced activity of docetaxel and PPS1D1.
# All animals were housed in a pathogen-free facility with continuous access to food and water. Mice were purchased from the core breeding facility at UT Southwestern. Six to eight-week-old female NOD/SCID mice were injected with 2.5×10^6 H460 cells subcutaneously. Tumor volume was followed by twice weekly measurements with Vernier calipers. Animals were randomized and treatment was initiated with mean tumor volume of each group was 100 mm3. Four different groups used were: (I) control PC462D1, (II) PPS1D1, (III) docetaxel, and (IV) combination of PPS1D1+docetaxel. Mice (n=8/group) were treated with PPS1D1 or PC462D1 in saline by ip injection at a dose of 0.25 mg/mouse, 3 times per week on a M-W-F schedule. Docetaxel from the UT Southwestern Clinical pharmacy was diluted in saline and delivered 2×/week ip at 5 mg/kg. Animals were sacrificed after 4 weeks of therapy. Tumor tissue was snap frozen, sectioned and stained with antibodies specific for phospho-Histone H3 (Millipore, #06-570) and cleaved caspase 3 (Cell Signaling, #9664). Reactivity was developed with appropriate fluorescently conjugated secondary antibodies (Jackson ImmunoResearch) and mounted with Prolong Gold with DAPI (Invitrogen), coverslipped and evaluated by fluorescence microscopy.
# [4] = Annexin V competition on lipid ELISA; type: binding; details: ELISA-like, 100 nM Annexin V
# Protocol: (§1) Multiple competition assays were conducted to determine whether PPS1 (or PPS1D1) competes with Annexin V, a known PS binding agent. […] Competition between Annexin V and PPS1 for binding to PS in liposomes using flow cytometry was evaluated. […] However, PPS1 directly binds PS. Also, PS-ligand binding may be much more complex than that of a typical protein-ligand binding. Typical protein ligand binding occurs via a defined binding pocket, which facilitates clear competition by other ligands that interact with the same binding pocket. But PS is a lipid in a fluid membrane, which has no defined macromolecular structure further complicating possible binding modes.
# Lipids (Avanti Polar Lipids) were dissolved in chloroform at 10 μg/ml and coated on to Immulon 1B “U” bottom microtiter plates (ThermoFisher, MA). Chloroform was evaporated at room temp (in the hood) and plates were blocked with 200 μl of 1% BSA for 1 hour. Plates were washed with 3× PBS. Biotinylated PPS1D1 dissolved in blocking buffer was added and incubated for 1 hour at room temp. Plates were washed with 3× PBS and 2× Annexin binding buffer. […] Binding was detected with streptavidin-HRP (1:1000 in blocking buffer) followed by 100 μl OPD (Sigma-Aldrich, MO). The reaction was stopped with 100 μl 0.18M H2SO4 and absorbance was read at 490 nm using the spectrophotometer (Spectramax i3, Molecular Devices, CA).
# [5] = calcium-dependent; cited from earlier work
# [6] = On-bead competition assay; type: binding; details: Annexin V at 10, 50 and 100 nM
# Protocol: Experimental procedure 12: On-bead competition assay. PPS1 and PC462 were synthesized on Tentagel beads. Organic solvent was removed and the beads were washed with 3 times with PBS. The beads were then incubated with PBS containing 3% BSA for 1 hour at room temperature. These beads were then incubated with 0.1 mM liposomes (84 mol % POPC, 15 mol % DOPS and 1 mol % NBD) for 2 hours at room temperature. Beads containing liposomes were the washed with binding buffer 3 times. […] Beads were then washed with binding buffer and imaged using fluorescence Microscope (Olympus BX-53).
# [7] = Annexin V / PPS1 competition on liposomes by flow cytometry; type: binding; details: unlabeled Annexin V 50 nM
# Protocol: as §1
# Unlabeled Annexin V vs FITC-PPS1 competition. 0.1 mM liposomes (85 mol % POPC, 15 mol % DOPS) were incubated with incubated with 50 nM Annexin V in Binding Buffer (0.01 M HEPES/NaOH (pH 7.4), 0.14 M NaCl, and 2.5 mM CaCl2) with 3% BSA for lhour. FITC PPS1 was added and the solution was incubated for 1 hour at room temperature. The binding of FITC-PPS1 to liposomes was analyzed by BD Accuri™ C6 flow cytometer (Becton-Dickinson, NJ). All data were analyzed using BDAccuriC6 software.
# Unlabeled PPS1 vs FITC-Annexin V competition. […] The binding of FITC-Annexin V to liposomes was analyzed by BD Accuri™ C6 flow cytometer (Becton-Dickinson, NJ). All data were analyzed using BDAccuriC6 software.
# [8] = complexes with beta2-glycoprotein 1; cited from earlier work
# [9] = test system: non-small cell lung cancer (NSCLC); details: in combination with carboplatin and paclitaxel (11/17); cited from earlier work
# [10] = test system: HCC4017, H460, HCC95, H1693, H1395 lung cancer cell lines; assay: Cell staining with Hoechst 33342 and propidium iodide (membrane integrity); type: cell-based, human; details: 0.005% Benzalkonium chloride
# Protocol: It was evaluated how PPS1D1 affects viability of these PS expressing cancer cell lines. While there are difficulties of narrowing down the exact mechanism of action of a compound targeting cell membrane lipids, whether PPS1D1 has any effect on cell membrane integrity was evaluated. Cells were treated with standard DNA staining dyes Propidium iodide (PI) and Hoechst 33342. While both bind DNA, only Hoechst is cell permeable. Therefore, when treating live cells only Hoechst will stain the nucleus while PI will stain the nucleus only if the cell membrane integrity is compromised. All the lung cancer cell lines and normal HBEC30KT cells were treated with these dyes in the presence of PPS1D1 (at 1 μM and 20 μM) or a control compound PC462D1 at 20 μM and evaluated fluorescence by microscopy without fixation. […] These observations indicate that 20 μM PPS1D1 is selectively cytotoxic to PS-positive lung cancer cells.
# 10,000 cells of HCC4017, H460, HCC95, H1693,H1395 and HBEC30KT were plated on chamber slides (Lab-Tek, Thermo Fisher, MA). On second day, cells were treated with PPS (1 μM and 20 μM), control PC462D1 (20 μM) and 0.005% Benzalkonium chloride (BAC) in RPMI medium with 10% FBS containing 3% BSA (KSFM media with 3% BSA for HBEC30KT). Chamber slides were washed with PBS three times. Cells were then stained with Hoechst 33342 (10 μg/ml) for 30 min in dark. Chamber slides were washed with 3× PBS. Cells were then stained with propidium iodide (1 mg/ml) for 15 mins. Cells were washed with 3× PBS and imaged using Fluorescence Microscope (Olympus BX-53).
compound,measurement,setting,value
COc1ccc(CN(CC(=O)N(CCCCN)CC(=O)N[C@@H](CCCCN)C(=O)N[C@H](CCCCN)C(=O)N[C@@H](CCSC)C(=O)NCCC(=O)NCCCC[C@H](NC(=O)CCNC(=O)[C@H](CCSC)NC(=O)[C@@H](CCCCN)NC(=O)[C@H](CCCCN)NC(=O)CN(CCCCN)C(=O)CN(Cc2ccc(OC)cc2)C(=O)CN(C(=O)CN(Cc2ccc3c(c2)OCO3)C(=O)CN[C@H](C)c2ccccc2)[C@H](C)c2ccccc2)C(N)=O)C(=O)CN(C(=O)CN(Cc2ccc3c(c2)OCO3)C(=O)CN[C@H](C)c2ccccc2)[C@H](C)c2ccccc2)cc1 [PPS1-D2] (I: H-[Nrpe][Gly(N-piperonyl)][Nrpe][N(4-MeOBn)Gly][Nlys]K[dK]M[βAla]K-NH2 / II: H-[Nrpe][Gly(N-piperonyl)][Nrpe][N(4-MeOBn)Gly][Nlys]K[dK]M[βAla]; amide I:10-II:C; N-terminus assumed),nuclear staining by propidium iodide,[1],nuclear staining happens only when PPS1-D2 is treated
same,disruption of tumor vascular endothelium (CD31),[2],disrupted tumor endothelium
same,signs of toxicity,[3]; mice treated with 50 μg,no signs of toxicity
same,MTD,"[3]; mouse, in vivo",2 to 4 mg/kg
"CC(=O)O[C@@]12CO[C@@H]1C[C@H](O)[C@@]1(C)C(=O)[C@H](O)C3=C(C)[C@@H](OC(=O)[C@H](O)[C@@H](NC(=O)OC(C)(C)C)c4ccccc4)C[C@@](O)([C@@H](OC(=O)c4ccccc4)[C@H]21)C3(C)C [docetaxel, reference compound]",response rate,"breast cancer; docetaxel alone, separate study",41%
same,tumor growth (tumor volume vs days post therapy initiation),"H460 xenografts; H460 in NOD/SCID mice, peptoids 0.25 mg/mouse 3x/week ip, docetaxel 0.5 mg/kg 2x/week ip",slowed tumor growth
same,tumor size reduction,"H460 xenografts; H460 in nude mice, daily dose of 0.5 mg/mL",equally effective in reducing the size of the tumors
Annexin V: 35.8 kDa protein that binds PS in a calcium-dependent manner,competition with PPS1D1 for binding to PS,[4],did not compete
same,affinity for PS,[5],nanomolar affinity
same,removal of liposomes from PPS1 beads,[6],None of these conditions were able to remove liposomes from beads
same,competition with FITC-PPS1 binding to liposomes,[7],did not compete
Bavituximab: human-mouse chimeric antibody targeting PS via beta2-glycoprotein 1,objective response,"breast cancer; combination of bavituximab and docetaxel, phase II (28/46)",61%
same,Kd,[8],0.4 nM
same,objective response,[9],65%
"Benzalkonium chloride [BAC, reference compound]",PI staining of cells,[10],PI-positive nuclei

# Reference: US10849875B2, “Cancer specific lipid targeted peptidomimetics” (University of Houston System, priority 2015, dated 2020)
